{"source": "patent US20230405063A1", "about": "“USE OF PROBIOTIC COMPONENT AND PHARMACEUTICAL COMPOSITION CONTAINING PROBIOTIC COMPONENT” (CHENGDU KUACHANGAOPU MEDICAL TECHNOLOGY CO., LTD., priority 2020, published 2023)", "type_in_all_cases": "in vivo", "key": {"[1]": {"test_system": "human liver cancer HepG2 cells", "experiment": "Tumor inhibition in HepG2 tumor-bearing nude mice (Example 2, Table 4)", "conditions": "for Tumor weight (x ± s) / Tumor inhibition rate r: dosed once, 150 μl/mouse; for Tumor weight (x ± s): 7th day after administration; for Tumor inhibition rate r: 7th day, relative to negative control; for Ratio of tumor inhibition rates, intratumoral group / intravenous group of the same drug (E7/E1, E8/E2, E10/E4): same drug and dose, local vs systemic administration", "experimental": "The tumor-bearing nude mice were widely used for drug studies on chemotherapy rather than immunotherapy in patients with solid tumors. Taking nude mice as experimental subjects, human liver cancer HepG2 cells were used as modeling cells, and 1×10^5 cells/mouse were injected into the right axilla subcutaneously for transplantation tumor modeling, and the average tumor volume of successfully modeled nude mice was 161.3 mm^3. The model animals were randomly divided into 17 groups. The drugs were administered according to the drug and dosing method in Table 4. Each group was dosed once with an injection volume of 150 μl/mouse. On the 7th day after drug administration, the animals were euthanized, and after dissection, the tumor tissue was taken out to determine the tumor weight, and the tumor inhibition rate (r) was calculated relative to the negative control group."}, "[2]": {"test_system": "mouse embryonic fibroblasts 3T3", "experiment": "Local lesion inhibition in 3T3 fibroblast nodule model in nude mice (Example 6, Table 9)", "conditions": "dosed twice at interval of 2 days, 150 μl/mouse/time, 7th day after final administration; for V (x ± s), volume of local lesions, series B / relative local lesion inhibition rate r′B: intra-nodal injection; for V (x ± s), volume of local lesions, series A / relative local lesion inhibition rate r′A: intraperitoneal injection", "from_the_text": "(§1) V=0.5×a×b^2, wherein a and b represent the length and width of the local lesion, respectively; Volume of the local lesion (e.g. tumor):\n(§2) Local lesion (e.g., tumor) proliferation rate (R)=TV/CV×100, wherein TV and CV are the local lesion volumes in the study group and negative control group, respectively;\n(§3) The method for determining the effect of combined drug administration in animal experiments was Burgi method (Burgi Y. Pharmacology; Drug actions and reactions. Cancerres. 1978, 38(2), 284-285). The Burgi method was modified by Zhengjun JIN (Zhengjun JIN, Equal probability and curve and “Q50”, Journal of the Second Shanghai Medical College; 1981, 1, 75-86) with q calculated as: q=EA+B/(EA+EB−EA×EB). In the following examples of the present invention, the combinational pharmaceutical efficacies (drug efficacies) of drug A and drug B co-administration was determined by ratio q of actual pharmaceutical efficacy (drug efficacy)/theoretical pharmaceutical efficacy (drug efficacy) according to Zhengjun JIN method, as follows.\nNude mice were used as experimental subjects, and mouse embryonic fibroblasts 3T3 were used as modeling cells. 2×10^4 cells/mouse were injected into the right axilla subcutaneously for transplantation nodule modeling, and the average volume of tumor-like nodules in successfully modeled nude mice was 171.5 mm^3. The model animals were randomly divided into […], and the drugs were administered according to Table 9. Each group except for groups 21-24 were administered by intraperitoneal injection, intra-nodal injection. The drugs used in groups 21-24 were a composition of non-local administration dosage form (dosage form that a probiotic component and a co-administration substance could be administered separately). The administration route of series A was: intraperitoneal injection of probiotic component+intra-nodal injection of co-administration substance; and the administration route of series B was: intraperitoneal injection of co-administration substance+intra-nodal injection of probiotic component. Each group was dosed twice at an interval of 2 days, with an injection volume of 150 μl/mouse/time. On the 7th day after the final administration, the volume (V) of local lesions comprising fibroblasts was measured, and the relative local lesion inhibition rates (r′A, r′B) were calculated for series A and series B, respectively, as compared with the negative control group. Further, the actual drug efficacy/expected efficacy ratio q could also be calculated according to the therapeutic effect (local lesion inhibition rate)."}, "lung tumor cells (A549)": {"test_system": "lung tumor cells (A549)", "experiment": "Tumor inhibition in A549 tumor-bearing nude mice, co-administration (Example 5, Table 7)", "conditions": "dosed once, 7th day, probiotic component = heat-inactivated Saccharomyces boulardii", "from_the_text": "as §3\nNude mice were used as experimental subjects, and lung tumor cells (A549) were used as modeling cells, 1×10^5 cells/mouse were injected into the right axilla subcutaneously for transplantation tumor modeling, and the average tumor volume of successfully modeled nude mice was 153.7 mm^3. The model animals were randomly divided into 18 groups, and the drugs were administered according to the drug components and administration route in Table 7. Each group was dosed once with an injection volume of […]. Wherein, the probiotic component was heat-inactivated Saccharomyces boulardii, and the administration route of group 16 was intra-tumoral injection of probiotic component followed by intra-tumoral injection of 10% arginine about 2 hours later. On the 7th day after drug administration, the animals were euthanized, and after dissection, the tumor tissue was taken out to determine the tumor weight, and the tumor inhibition rate (r) was calculated relative to the negative control group. Further, the actual efficacy/expected efficacy ratio q of a drug could also be calculated according to the therapeutic effect (tumor inhibition rate)."}, "breast cancer 4T1 cells": {"test_system": "breast cancer 4T1 cells", "experiment": "Extra-tumoral local administration in 4T1 tumor-bearing BALB/c mice, R7d/R21d (Example 11, Table 17)", "conditions": "subaxillary intradermal (extra-tumoral), twice at 7-day interval, 120 μl/mouse/time; for R7 d (relative tumor proliferation rate): day 7 after last dose; for R21 d (relative tumor proliferation rate): day 21 after last dose", "experimental": "as §1, §2\nIn the following examples of the present invention, the combinational pharmaceutical efficacies (drug efficacies) of drug A and drug B co-administration was determined by ratio q of actual pharmaceutical efficacy (drug efficacy)/theoretical pharmaceutical efficacy (drug efficacy) according to Zhengjun JIN method, as follows.\nBALB/c mice were used as experimental subjects, and breast cancer 4T1 cells were used as modeling cells. 0.25×10^5 cells/mouse were injected into the right axilla subcutaneously for transplantation tumor modeling. On the 5th day after modeling, the test animals with visually obvious tumors were randomly divided into 12 groups, having 10 animals in each group. […] In groups 1-11, on days 7 and 21 after the last dose the tumor volume (V7d, V21d) were measured, and the relative tumor proliferation rates (R7d, R21d) were calculated relative to the negative control group on days 7 and 21 after the dose, so that the short-term therapeutic effectiveness (100%−R7d) and the medium- and long-term therapeutic effectiveness (100%−R21d) could be calculated, respectively. Further, based on the short-term therapeutic effectiveness and the medium- and long-term therapeutic effectiveness, the actual/expected ratio for short-term pharmaceutical efficacies q7d and the actual/expected ratio for medium- and long-term pharmaceutical efficacies q21d were calculated respectively."}, "[3]": {"test_system": "outer lateral muscle mass of the right leg", "experiment": "Local effect on normal muscle tissue, area of abnormal regions, BALB/c mice (Example 9, Table 15)", "conditions": "dosed once into muscle, 100 ul/mouse, 7th day", "experimental": "BALB/c mice were used as experimental subjects, and the model animals were randomly divided into 4 groups, having 6 animals in each group. The drugs were administered according to Table 15. […] On the 7th day after drug administration, the animals were euthanized. The specimens of the outer lateral muscle mass of the right leg were taken out by autopsy, and perform a general pathological analysis. The sections were measured for the area of abnormal regions such as necrosis and nodules that distinguished from normal muscle."}, "[4]": {"conditions": "intratumoral injection, '+' = arginine injected about 2 hours later"}}}
{"compound": "O=c1[nH]cc(F)c(=O)[nH]1", "note": "[1% 5-fluorouracil, 5-fluorouracil]", "values": [{"measurement": "Tumor weight (x ± s)", "setting": "[1]; intratumoral injection", "result": "0.133 ± 0.094", "unit": "g"}, {"measurement": "Tumor inhibition rate r", "setting": "[1]; intratumoral injection", "result": 49.5, "unit": "%"}, {"measurement": "Tumor weight (x ± s)", "setting": "[1]; intravenous injection", "result": "0.139 ± 0.094", "unit": "g"}, {"measurement": "Tumor inhibition rate r", "setting": "[1]; intravenous injection", "result": 42.3, "unit": "%"}, {"measurement": "Ratio of tumor inhibition rates, intratumoral group / intravenous group of the same drug (E7/E1, E8/E2, E10/E4)", "setting": "[1]", "result": "< 200", "unit": "%"}, {"measurement": "V (x ± s), volume of local lesions, series B", "setting": "[2]", "result": "1.226 ± 0.217", "unit": "cm^3"}, {"measurement": "relative local lesion inhibition rate r′B", "setting": "[2]", "result": 14.3, "unit": "%"}, {"measurement": "V (x ± s), volume of local lesions, series A", "setting": "[2]", "result": "1.225 ± 0.211", "unit": "cm^3"}, {"measurement": "relative local lesion inhibition rate r′A", "setting": "[2]", "result": 9.7, "unit": "%"}, {"measurement": "Tumor inhibition rate r", "setting": "lung tumor cells (A549); [4]", "result": 46.6, "unit": "%"}, {"measurement": "Tumor weight (x ± s)", "setting": "lung tumor cells (A549); [4]", "result": "0.116 ± 0.076", "unit": "g"}, {"measurement": "Tumor inhibition rate r", "setting": "lung tumor cells (A549); intravenous injection", "result": 41.3, "unit": "%"}, {"measurement": "Tumor weight (x ± s)", "setting": "lung tumor cells (A549); intravenous injection", "result": "0.122 ± 0.065", "unit": "g"}, {"measurement": "R7 d (relative tumor proliferation rate)", "setting": "breast cancer 4T1 cells", "result": 73, "unit": "%"}, {"measurement": "R21 d (relative tumor proliferation rate)", "setting": "breast cancer 4T1 cells", "result": 93, "unit": "%"}]}
{"compound": "CCO", "note": "[75% ethanol, ethanol]", "values": [{"measurement": "Tumor weight (x ± s)", "setting": "[1]; intratumoral injection", "result": "0.122 ± 0.085", "unit": "g"}, {"measurement": "Tumor inhibition rate r", "setting": "[1]; intratumoral injection", "result": 53.6, "unit": "%"}, {"measurement": "Tumor weight (x ± s)", "setting": "[1]; intravenous injection", "result": "0.226 ± 0.113", "unit": "g"}, {"measurement": "Tumor inhibition rate r", "setting": "[1]; intravenous injection", "result": 6.1, "unit": "%"}, {"measurement": "Ratio of tumor inhibition rates, intratumoral group / intravenous group of the same drug (E7/E1, E8/E2, E10/E4)", "setting": "[1]", "result": "> 200", "unit": "%"}, {"measurement": "Area of abnormal regions", "setting": "[3]", "result": "33.16 ± 13.44", "unit": "mm^2"}, {"measurement": "V (x ± s), volume of local lesions, series B", "setting": "[2]", "result": "1.078 ± 0.221", "unit": "cm^3"}, {"measurement": "relative local lesion inhibition rate r′B", "setting": "[2]", "result": 24.7, "unit": "%"}, {"measurement": "V (x ± s), volume of local lesions, series A", "setting": "[2]", "result": "1.300 ± 0.197", "unit": "cm^3"}, {"measurement": "relative local lesion inhibition rate r′A", "setting": "[2]", "result": 4.2, "unit": "%"}, {"measurement": "Tumor inhibition rate r", "setting": "lung tumor cells (A549); [4]", "result": 33.7, "unit": "%"}, {"measurement": "Tumor weight (x ± s)", "setting": "lung tumor cells (A549); [4]", "result": "0.145 ± 0.084", "unit": "g"}, {"measurement": "Tumor inhibition rate r", "setting": "lung tumor cells (A549); intravenous injection", "result": 2.7, "unit": "%"}, {"measurement": "Tumor weight (x ± s)", "setting": "lung tumor cells (A549); intravenous injection", "result": "0.203 ± 0.095", "unit": "g"}, {"measurement": "R7 d (relative tumor proliferation rate)", "setting": "breast cancer 4T1 cells", "result": 92, "unit": "%"}, {"measurement": "R21 d (relative tumor proliferation rate)", "setting": "breast cancer 4T1 cells", "result": 107, "unit": "%"}]}
